Calls of active or inactive are those of the source. The rule behind the calls is not given here.
Tests used:
LSD1/CoREST complex [1] = biological target: T1, LSD1/CoREST complex (Homo sapiens, UniProt O60341); test: Inhibition of recombinant human KDM1A/CoREST complex expressed in Escherichia coli using [Lys(Me1)4]-Histone H3 (1 to 21 residues)-GGK(biotin) as substrate incubated for 20 mins measured after 1 hr by TR-FRET assay
[2] = test system: CN1CCC(Oc2ccc(OCc3ccccc3NC(=O)c3cc4sccc4n3C)cc2)CC1; test: Inhibition of recombinant human KDM1A/CoREST complex expressed in Escherichia coli assessed as Vmax for substrate using H3K4me peptide as substrate preincubated for 15 mins followed by substrate addition measured for 12 mins by Lineweaver-Burk plot analysis
[3] = test system: CN1CCC(Oc2ccc(OCc3ccccc3NC(=O)c3cc4sccc4n3C)cc2)CC1; test: Inhibition of recombinant human KDM1A/CoREST complex expressed in Escherichia coli assessed as Km for substrate using H3K4me peptide as substrate preincubated for 15 mins followed by substrate addition measured for 12 mins by Lineweaver-Burk plot analysis
THP-1 [4] = test: Anticlonogenic activity against human THP1 cells assessed as inhibition of methylcellulose colony formation at 1 uM after 13 days relative to control; format: functional; settings: THP-1, 312 h
[5] = biological target: Lysine-specific histone demethylase 1A (Homo sapiens) (UniProt O60341); test: Inhibition of KDM1A in human THP1 cells assessed as increase in CD11b expression level at 0.5 uM after 48 hrs by flow cytometric analysis; format: cell-based
[6] = biological target: T2, Amine oxidase [flavin-containing] A (Homo sapiens, UniProt P21397); test: Inhibition of recombinant human MAOA incubated for 15 mins measured after 30 mins by luminescence-Glo assay
T2 sequence (P21397 whole entry): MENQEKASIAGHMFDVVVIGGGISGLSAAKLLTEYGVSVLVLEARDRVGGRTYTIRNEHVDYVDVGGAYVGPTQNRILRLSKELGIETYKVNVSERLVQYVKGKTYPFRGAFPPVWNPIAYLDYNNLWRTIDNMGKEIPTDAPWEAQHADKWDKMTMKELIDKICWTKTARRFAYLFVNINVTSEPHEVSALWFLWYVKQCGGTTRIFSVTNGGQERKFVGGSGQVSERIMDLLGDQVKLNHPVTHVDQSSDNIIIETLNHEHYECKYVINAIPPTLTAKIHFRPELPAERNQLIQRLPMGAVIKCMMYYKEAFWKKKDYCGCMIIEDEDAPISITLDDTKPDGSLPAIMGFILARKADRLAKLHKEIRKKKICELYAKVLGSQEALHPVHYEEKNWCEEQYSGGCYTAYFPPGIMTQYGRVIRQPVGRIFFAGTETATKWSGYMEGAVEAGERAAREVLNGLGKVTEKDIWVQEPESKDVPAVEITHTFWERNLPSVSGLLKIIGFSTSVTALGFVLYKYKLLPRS

NB-4 = test: Antiproliferative activity against human NB4 cells
[7] = biological target: T3, Amine oxidase [flavin-containing] B (Homo sapiens, UniProt P27338); test: Inhibition of recombinant human MAOB incubated for 15 mins measured after 30 mins by luminescence-Glo assay
T3 sequence (P27338 whole entry): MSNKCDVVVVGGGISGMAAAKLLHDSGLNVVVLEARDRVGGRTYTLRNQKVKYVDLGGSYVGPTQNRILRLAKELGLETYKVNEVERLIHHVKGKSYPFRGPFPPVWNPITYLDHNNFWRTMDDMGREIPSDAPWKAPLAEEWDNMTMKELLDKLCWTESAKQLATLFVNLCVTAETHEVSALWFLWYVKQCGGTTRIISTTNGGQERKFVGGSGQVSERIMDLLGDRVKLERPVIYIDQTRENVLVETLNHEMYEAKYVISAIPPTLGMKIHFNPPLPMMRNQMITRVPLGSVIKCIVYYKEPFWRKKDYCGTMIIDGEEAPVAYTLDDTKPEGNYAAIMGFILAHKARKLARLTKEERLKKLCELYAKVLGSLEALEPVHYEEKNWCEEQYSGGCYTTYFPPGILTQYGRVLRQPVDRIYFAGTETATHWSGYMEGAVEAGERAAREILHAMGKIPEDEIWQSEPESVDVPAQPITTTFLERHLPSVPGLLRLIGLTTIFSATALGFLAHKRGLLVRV

THP-1 [8] = test: Cell cycle arrest in human THP1 cells at 1 uM after 72 hrs by propidium iodide staining based flow cytometry; format: functional
[9] = biological target: Lysine-specific histone demethylase 1A (Homo sapiens) (UniProt O60341); test: Inhibition of KDM1A in human THP1 cells assessed as increase in CD86 expression level at 0.5 uM after 48 hrs by flow cytometric analysis; format: cell-based
THP-1 [10] = test: Antiproliferative activity against human THP1 cells
MV4-11 = test: Antiproliferative activity against human MV4-11 cells
THP-1 [11] = test: Induction of apoptosis in human THP1 cells at 1 uM after 72 hrs by Annexin V-propidium iodide double staining based flow cytometry; format: functional, cell-based
THP-1 [12] = test: Cell cycle arrest in human THP1 cells at 0.5 uM after 72 hrs by propidium iodide staining based flow cytometry; format: functional
THP-1 [13] = test: Anticlonogenic activity against human THP1 cells assessed as inhibition of methylcellulose colony formation at 0.5 uM after 13 days relative to control; format: functional; settings: THP-1, 312 h
[14] = biological target: T4, Lysine-specific histone demethylase 2 (Homo sapiens, UniProt Q8NB78); test: Inhibition of KDM1B (unknown origin)
T4 sequence (Q8NB78 whole entry): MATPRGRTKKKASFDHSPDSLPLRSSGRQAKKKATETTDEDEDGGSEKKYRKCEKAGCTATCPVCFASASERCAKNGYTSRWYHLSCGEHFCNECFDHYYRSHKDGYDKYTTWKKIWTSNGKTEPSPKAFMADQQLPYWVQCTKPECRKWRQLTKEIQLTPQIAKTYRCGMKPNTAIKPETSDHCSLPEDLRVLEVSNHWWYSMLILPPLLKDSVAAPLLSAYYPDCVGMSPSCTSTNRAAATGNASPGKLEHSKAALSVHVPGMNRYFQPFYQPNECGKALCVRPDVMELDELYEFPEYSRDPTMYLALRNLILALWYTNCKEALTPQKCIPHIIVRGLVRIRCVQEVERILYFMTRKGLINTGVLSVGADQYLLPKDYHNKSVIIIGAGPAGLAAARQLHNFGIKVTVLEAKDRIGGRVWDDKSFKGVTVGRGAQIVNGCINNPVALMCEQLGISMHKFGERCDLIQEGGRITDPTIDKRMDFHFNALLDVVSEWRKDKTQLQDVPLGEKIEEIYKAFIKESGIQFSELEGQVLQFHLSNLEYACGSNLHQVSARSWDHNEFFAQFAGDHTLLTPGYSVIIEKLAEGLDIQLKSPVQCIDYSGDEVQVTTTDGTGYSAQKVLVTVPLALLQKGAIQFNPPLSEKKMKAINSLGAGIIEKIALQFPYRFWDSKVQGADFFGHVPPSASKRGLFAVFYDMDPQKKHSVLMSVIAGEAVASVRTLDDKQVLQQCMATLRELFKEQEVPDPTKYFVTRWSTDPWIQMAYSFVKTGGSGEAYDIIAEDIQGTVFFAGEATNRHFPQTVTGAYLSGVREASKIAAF

THP-1 [15] = test: Induction of apoptosis in human THP1 cells at 0.5 uM after 72 hrs by Annexin V-propidium iodide double staining based flow cytometry; format: functional, cell-based
LSD1/CoREST complex [16] = biological target: T1, LSD1/CoREST complex; test: Competitive inhibition of recombinant human KDM1A/CoREST complex expressed in Escherichia coli using H3K4me peptide as substrate preincubated for 15 mins followed by substrate addition measured for 12 mins by Lineweaver-Burk plot analysis

Compound	IC50 (LSD1/CoREST complex [1]) [µM]	also measured
CN1CCC(Oc2ccc(COc3ccccc3NC(=O)c3cc4sccc4n3C)cc2)CC1	0.336	–
Cn1c(C(=O)Nc2ccccc2COc2ccc(OCC3CCNCC3)cc2)cc2sccc21	0.149	–
Cn1c(C(=O)Nc2ccccc2COc2ccc(O[C@H]3CC[C@@H](N)CC3)cc2)cc2sccc21	0.121	–
Cn1c(C(=O)Nc2ccccc2COc2ccc([C@H]3CC[C@H](N)CC3)cc2)cc2sccc21	0.34	–
CC(=O)N1CCC(Oc2ccc(OCc3ccccc3NC(=O)c3cc4sccc4n3C)cc2)CC1	> 100	–
LSD1/CoREST complex (Homo sapiens) (from UniProt O60341+Q9UKL0)	–	Vmax [2]: 226 µmol/min; Km [3]: 1.5 µM
CCOCc1cccc(NC(=O)c2cc3sccc3n2C)c1COc1ccc(OC[C@@H]2CCNC2)cc1	0.0078	inhibition at 1 µM (THP-1 [4]): 70.5%; inhibition [5]: Active; IC50 [6]: 41.3 µM; IC50 (NB-4): 1.2 µM; IC50 [7]: > 100 µM; Activity (THP-1 [8]): inactive; inhibition [9]: Active; IC50 (THP-1 [10]): 2.4 µM; IC50 (MV4-11): 2.5 µM; Activity (THP-1 [11]): inactive
CC(C)OCc1cccc(NC(=O)c2cc3sccc3n2C)c1COc1ccc(OC2CCNCC2)cc1	0.066	–
Cn1c(C(=O)Nc2ccccc2COc2ccc(OCC3CCNC3)cc2)cc2sccc21 (stereo not given)	0.022	–
CN1CCN(Cc2ccc(OCc3ccccc3NC(=O)c3cc4sccc4n3C)cc2)CC1	2.9	–
Cn1c(C(=O)Nc2ccccc2COc2ccc(OC3CCN(Cc4ccccc4)CC3)cc2)cc2sccc21	> 100	–
COCc1cccc(NC(=O)c2cc3sccc3n2C)c1COc1ccc(OC2CCNCC2)cc1	0.0746 to 0.075	–
Cn1c(C(=O)Nc2ccccc2COc2ccc(CNC(=N)N)cc2)cc2sccc21	3.2	–
Cn1c(C(=O)Nc2ccccc2CCc2ccc(OC3CCNCC3)cc2)cc2sccc21	0.177	–
COCc1ccccc1NC(=O)c1cc2sccc2n1C	> 100	–
Cn1c(C(=O)Nc2ccccc2COc2ccncc2)cc2sccc21	> 100	–
Cn1c(C(=O)Nc2ccccc2COc2ccc(OC[C@@H]3CCNC3)cc2)cc2sccc21	0.018	–
Cn1c(C(=O)Nc2ccccc2COc2ccc(OC3CCNCC3)cc2)cc2sccc21	0.09 to 0.094	–
Cn1c(C(=O)Nc2ccccc2COc2ccc(OC3C[C@H]4CC[C@@H](C3)N4)cc2)cc2sccc21 (stereo not given in full)	0.124	–
Cn1c(C(=O)Nc2ccccc2COc2ccc(N3CCNCC3)cc2)cc2sccc21	1.5	–
Cn1c(C(=O)Nc2cccc(OCc3ccncc3)c2)cc2sccc21	5.8	–
N[C@H]1CC[C@H](N[C@@H]2C[C@H]2c2ccccc2)CC1	–	IC50 [6]: 41.3 µM; Activity (THP-1 [12]): inactive; inhibition at 0.5 µM (THP-1 [13]): 70%; IC50 [14]: 12.9 µM; Activity (THP-1 [15]): inactive
Cn1c(C(=O)Nc2ccccc2COc2ccc(OC3CCCNC3)cc2)cc2sccc21 (stereo not given)	0.674	–
Cn1c(C(=O)Nc2ccccc2OCc2ccncc2)cc2sccc21	> 100	–

Compound	IC50 (LSD1/CoREST complex [1]) [µM]	also measured
Cn1c(C(=O)Nc2ccc(COc3ccncc3)cc2)cc2sccc21	46.4	–
CN1CCC(Oc2cccc(OCc3ccccc3NC(=O)c3cc4sccc4n3C)c2)CC1	1	–
COc1ccc(NC(=O)c2cc3sccc3n2C)cc1	> 100	–
Cn1c(C(=O)Nc2ccccc2COc2ccc(OC3CCNC3)cc2)cc2sccc21 (stereo not given)	0.804	–
CN1CCC(Oc2ccc(OCc3ccccc3NC(=O)c3cc4sccc4n3C)cc2)CC1	0.31 to 0.331	Ki (LSD1/CoREST complex [16]): 2.3 µM
Cn1c(C(=O)Nc2ccccc2C(=O)Nc2ccc(OC3CCNCC3)cc2)cc2sccc21	2.2	–
CNCCCOc1ccc(OCc2ccccc2NC(=O)c2cc3sccc3n2C)cc1	1.3	–
Cn1c(C(=O)Nc2ccccc2COc2ccc(OC3CCCNCC3)cc2)cc2sccc21 (stereo not given)	0.064	–
CCN1CCC(Oc2ccc(OCc3ccccc3NC(=O)c3cc4sccc4n3C)cc2)CC1	0.451	–
Cn1c(C(=O)Nc2ccc(OCc3ccncc3)cc2)cc2sccc21	> 100	–
CCn1c(C(=O)Nc2cccc(COC)c2COc2ccc(OC[C@@H]3CCNC3)cc2)cc2sccc21	0.0067	inhibition at 1 µM (THP-1 [4]): 63.5%; inhibition [5]: Active; IC50 [6]: 47.2 µM; IC50 (NB-4): 2.9 µM; IC50 [7]: > 100 µM; Activity (THP-1 [8]): inactive; inhibition [9]: Active; IC50 (THP-1 [10]): 1.2 µM; IC50 (MV4-11): 4.1 µM; Activity (THP-1 [11]): inactive
COCc1cccc(NC(=O)c2cc3sccc3n2C)c1COc1ccc(OC2CCCNCC2)cc1 (stereo not given)	0.0292	–
COc1ccccc1NC(=O)c1cc2sccc2n1C	> 100	–
CCOCc1cccc(NC(=O)c2cc3sccc3n2C)c1COc1ccc(OC2CCNCC2)cc1	0.056	–
COCc1cccc(NC(=O)c2cc3sccc3n2C)c1COc1ccc(OC[C@@H]2CCNC2)cc1	0.0084	inhibition [5]: Active; IC50 [6]: 24.9 µM; IC50 (NB-4): 0.4 µM; IC50 [7]: > 100 µM; inhibition [9]: Active; IC50 (THP-1 [10]): 1.3 µM; IC50 (MV4-11): 1.2 µM
Cn1c(C(=O)Nc2ccccc2COc2ccc(NC3CCNCC3)cc2)cc2sccc21	2.5	–
CN1CCC(Oc2ccc(OCc3ccc(NC(=O)c4cc5sccc5n4C)cc3)cc2)CC1	2.5	–
COCc1cccc(NC(=O)c2cc3sccc3n2C)c1COc1ccc(OC[C@H]2CCNC2)cc1	0.0857	–
Cn1c(C(=O)Nc2cccc(CN3CCOCC3)c2COc2ccc(OC3CCNCC3)cc2)cc2sccc21	0.065	–
COCc1ccc(NC(=O)c2cc3sccc3n2C)cc1	> 100	–
Cn1c(C(=O)Nc2ccccc2COc2ccc(OCC3CNC3)cc2)cc2sccc21	0.618	–
Cn1c(C(=O)Nc2ccccc2OCC2CCN(CC3CCNCC3)CC2)cc2sccc21	1.7	–
CN1CCC(Oc2ccccc2OCc2ccccc2NC(=O)c2cc3sccc3n2C)CC1	68.2	–

— ChEMBL document CHEMBL4007416, “Thieno[3,2-b]pyrrole-5-carboxamides as New Reversible Inhibitors of Histone Lysine Demethylase KDM1A/LSD1. Part 2: Structure-Based Drug Design and Structure-Activity Relationship” (J Med Chem, 2017)
